Measured values as given in patent publication US20240321457A1, “SYSTEMS FOR AND METHODS OF TREATMENT SELECTION” (THE REGENTS OF THE UNIVERSITY OF CALIFORNIA, priority 2020, published 2024).

Legend:
[1] = system: Gαi; assay: NanoBiT Gαi1 dissociation assay (split luciferase); assay type: cell-based; details: 60 minutes
Experimental: The NanoBiT G-protein dissociation assay, based on a split-luciferase system, was performed as previously described with some modifications (Inoue et al., 2019). All DNA constructs were provided by Dr. Asuka Inoue (Tohoku University, Japan). NanoBiT plasmids (pCAGGS) include Gαi1-LgBiT, Gβ1-native, and SmBiT-Gγ2 (CAAX C68S mutant). Gαi-DREADD (pcDNA3.1) was used as a synthetic Gαi-coupled GPCR. Briefly, CAL-33 and HET-1A cells were seeded on poly-D-lysine coated (Sigma, Cat #P7280), opaque, white 96-well plates (Falcon Cat #353296). The following day cells were transfected with NanoBiT and receptor plasmids using Lipofectamine 3000 (ThermoFisher Scientific, Cat #L3000008) according to manufacturer recommendations for a 12-well scale (10 μL transfection mix to each well). The NanoBiT plasmids were mixed at a ratio of 100 ng Gαi1-LgBiT, 500 ng Gβ1, 500 ng SmBiT-Gγ2, and 200 ng of receptor if needed. For gene knockdown experiments, 10 pmol of pooled siControl (Dharmacon, Cat #D-001810-10-20), siFGFR3 (Mission siRNA, Cat #SIHK0780, SIHK0781, SIHK0782), or siDaple (Dharmacon, Cat #L-033364-01-0005) was included in the plasmid mix. Media was changed the following day. Two days after transfection, media was aspirated from each well and washed once with HBSS. Cells were incubated in HBSS with a final concentration of 5 μM native coelenterazine (Biotium, Cat #10110-1) for 30 minutes at room temperature protected from light. Basal luminescence was read and ligand prepared for final concentrations of 10 ng/mL human bFGF (Roche Cat #11123149001) and 10 μM clozapine-N-oxide (Cayman Chemical, Cat #NC1044836). After ligand addition, luminescence was read in kinetic loops (each well ˜every 30 seconds) for 60 minutes total (Tecan Spark). Raw luminescent values were normalized to the corresponding basal value for each well and subsequently to the mean vehicle ratio (raw/basal) at time 0. Significance was calculated using a one-way ANOVA at the 60 minute time point.
To test this idea, a split luciferase assay (Gαi NanoBiT) was used, in which signal is lost upon activation of Gαi and dissociation from Gβγ (FIG. 15C and FIG. 16A). As a control, an engineered Designer Receptor Exclusively Activated by Designer Drugs (DREADD) receptor was first transfected, and the resulting cell population stimulated with the DREADD ligand, clozapine-N-oxide (CNO).
Referring to FIG. 15C, NanoBiT biosensor measures Gαi activation through dissociation of the luciferase split between Gα and Gβγ. CNO mediates canonical GPCR signaling through the synthetic Gαi-coupled DREADD receptor. FGF mediates HNSCC-specific signaling through FGFR3 and Daple.

[2] = system: solid tumors with FGFR mRNA overexpression; details: phase I trials; cited from earlier work
[3] = system: CAL-33 cells; assay: Scratch migration assay; assay type: cell-based; details: fibronectin-plated CAL-33 cells; 10 ng/mL bFGF, 24 hours; versus vehicle
Experimental: CAL-33 cells were seeded on 12-well plates coated with 10 μg/mL fibronectin in PBS (Sigma Aldrich, Cat #F2006-1MG). Once cells reached confluence, a vertical scratch was made with a pipette tip and washed well with PBS before adding serum-free media. Cells were stimulated with vehicle, 10 ng/mL bFGF, or 1% serum for 24 hours. Images were taken at the 0 and 24 hour time points (2× magnification) and the scratch area was quantified using ImageJ. Percent scratch closure was calculated for each well and significance assessed using a one-way ANOVA.
Referring to FIG. 15H, a vertical scratch was introduced to fibronectin-plated CAL-33 cells. Images were taken at 0 and 24 hours after FGF stimulation (scale bar=200 μm). (I) Quantification of replicate scratch closure assays from panel H (*P<0.05 when compared with the vehicle-treated group).

[4] = system: ERK phosphorylation; assay: ERK phosphorylation immunoblot after FGF stimulation; assay type: cell-based; details: FGF 10 ng/mL, time course
Experimental: (§1) CAL-33 and HET-1A cells were seeded on poly-D-lysine-coated 6-well plates. Cells were transfected with siRNA using Lipofectamine RNAiMAX (Thermo Fisher Scientific, Cat #100014472) according to manufacturer recommendations. After overnight serum starvation, cells were stimulated with vehicle, 10 ng/mL bFGF, or 10 μM CNO. Cells were washed once with PBS and lysed in RIPA buffer (50 mM Tris-HCl pH 6.8, 150 mM NaCl, 1% NP-40, 0.5% sodium deoxycholate, 0.1% SDS) with protease and phosphatase inhibitors (Bimake, Cat #B14001, B15001-A/B). Lysates were briefly sonicated and cleared by centrifugation before boiling in Laemmli sample buffer (Bio-Rad Cat #1610747). After separation on 10% acrylamide gels and transfer to PVDF membranes, membranes were blocked with 2% BSA in TBST before incubating with antibodies. […]
Referring to FIG. 16C, ERK phosphorylation over a time course was measured by immunoblotting in CAL-33 and HET-1A cells stimulated with FGF (10 ng/mL).

[5] = system: PAK1/2 phosphorylation; assay: PAK1/2 phosphorylation immunoblot after FGF stimulation; assay type: cell-based; details: FGF stimulation 0, 5, 10, 30, 60 minutes
Experimental: as §1
Referring to FIG. 15G, PAK1/2 autophosphorylation was measured by immunoblot analysis over a time course of FGF stimulation (0, 5, 10, 30, 60 minutes) in CAL-33 and HET-1A cells.

C[N+]1([O-])CCN(C2=Nc3cc(Cl)ccc3Nc3ccccc32)CC1 [CNO, clozapine-N-oxide]
Gαi activation (loss of luciferase signal) ([1]; CAL-33 cells expressing Gαi NanoBiT and DREADD receptor, CNO 10 μM): Robust Gαi activation | Gαi activation (loss of luciferase signal) ([1]; HET-1A cells expressing Gαi NanoBiT and DREADD receptor, CNO 10 μM): Robust Gαi activation

COCc1c(-c2cc3cc(C)cc(OC)c3s2)c2c(N)ncnn2c1CN1CCNC(=O)C1 [rogaratinib]
objective response rate [2]: 67%

FGF: human bFGF (Roche), fibroblast growth factor used as ligand for stimulation
cell migration (scratch closure) [3]: statistically significant increase | ERK phosphorylation ([4]; CAL-33 cells): rapidly induced ERK phosphorylation | ERK phosphorylation ([4]; HET-1A cells): rapidly induced ERK phosphorylation | Gαi activation (loss of luciferase signal) ([1]; CAL-33 cells, Gαi NanoBiT, FGF 10 ng/mL): induce Gαi activation | Gαi activation (loss of luciferase signal) ([1]; HET-1A cells, Gαi NanoBiT, FGF 10 ng/mL): no such activation occurred | phosphorylation of PAK1/2 ([5]; CAL-33 cells): results in downstream phosphorylation of PAK1/2 | phosphorylation of PAK1/2 ([5]; HET-1A cells): not observed
